Measured values reported in patent publication US11578061B2, “Inhibitors of LRRK2 kinase” (Halia Therapeutics, Inc., priority 2021, dated 2023).

Target: recombinant human LRRK2 (catalytic domain only [amino acids 970-2527], GST-tagged) (Homo sapiens (Human), UniProt Q5S007)
Experiment: LRRK2 Enzymatic Assay
Assay type: biochemical
Conditions: LRRKtide substrate, [32P]-ATP
Procedure, shortened: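 Radiometric P81 filter-binding read-out of [32P]-ATP transfer to LRRKtide (20 μM) by 30 nM GST-LRRK2 970-2527, 2 h at room temperature after 20 min compound preincubation (10 μM–0.5 nM, 1% DMSO). IC50 derived from % remaining activity versus DMSO.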

recombinant human LRRK2 (catalytic domain only [amino acids 970-2527], GST-tagged), sequence (Q5S007 970-2527): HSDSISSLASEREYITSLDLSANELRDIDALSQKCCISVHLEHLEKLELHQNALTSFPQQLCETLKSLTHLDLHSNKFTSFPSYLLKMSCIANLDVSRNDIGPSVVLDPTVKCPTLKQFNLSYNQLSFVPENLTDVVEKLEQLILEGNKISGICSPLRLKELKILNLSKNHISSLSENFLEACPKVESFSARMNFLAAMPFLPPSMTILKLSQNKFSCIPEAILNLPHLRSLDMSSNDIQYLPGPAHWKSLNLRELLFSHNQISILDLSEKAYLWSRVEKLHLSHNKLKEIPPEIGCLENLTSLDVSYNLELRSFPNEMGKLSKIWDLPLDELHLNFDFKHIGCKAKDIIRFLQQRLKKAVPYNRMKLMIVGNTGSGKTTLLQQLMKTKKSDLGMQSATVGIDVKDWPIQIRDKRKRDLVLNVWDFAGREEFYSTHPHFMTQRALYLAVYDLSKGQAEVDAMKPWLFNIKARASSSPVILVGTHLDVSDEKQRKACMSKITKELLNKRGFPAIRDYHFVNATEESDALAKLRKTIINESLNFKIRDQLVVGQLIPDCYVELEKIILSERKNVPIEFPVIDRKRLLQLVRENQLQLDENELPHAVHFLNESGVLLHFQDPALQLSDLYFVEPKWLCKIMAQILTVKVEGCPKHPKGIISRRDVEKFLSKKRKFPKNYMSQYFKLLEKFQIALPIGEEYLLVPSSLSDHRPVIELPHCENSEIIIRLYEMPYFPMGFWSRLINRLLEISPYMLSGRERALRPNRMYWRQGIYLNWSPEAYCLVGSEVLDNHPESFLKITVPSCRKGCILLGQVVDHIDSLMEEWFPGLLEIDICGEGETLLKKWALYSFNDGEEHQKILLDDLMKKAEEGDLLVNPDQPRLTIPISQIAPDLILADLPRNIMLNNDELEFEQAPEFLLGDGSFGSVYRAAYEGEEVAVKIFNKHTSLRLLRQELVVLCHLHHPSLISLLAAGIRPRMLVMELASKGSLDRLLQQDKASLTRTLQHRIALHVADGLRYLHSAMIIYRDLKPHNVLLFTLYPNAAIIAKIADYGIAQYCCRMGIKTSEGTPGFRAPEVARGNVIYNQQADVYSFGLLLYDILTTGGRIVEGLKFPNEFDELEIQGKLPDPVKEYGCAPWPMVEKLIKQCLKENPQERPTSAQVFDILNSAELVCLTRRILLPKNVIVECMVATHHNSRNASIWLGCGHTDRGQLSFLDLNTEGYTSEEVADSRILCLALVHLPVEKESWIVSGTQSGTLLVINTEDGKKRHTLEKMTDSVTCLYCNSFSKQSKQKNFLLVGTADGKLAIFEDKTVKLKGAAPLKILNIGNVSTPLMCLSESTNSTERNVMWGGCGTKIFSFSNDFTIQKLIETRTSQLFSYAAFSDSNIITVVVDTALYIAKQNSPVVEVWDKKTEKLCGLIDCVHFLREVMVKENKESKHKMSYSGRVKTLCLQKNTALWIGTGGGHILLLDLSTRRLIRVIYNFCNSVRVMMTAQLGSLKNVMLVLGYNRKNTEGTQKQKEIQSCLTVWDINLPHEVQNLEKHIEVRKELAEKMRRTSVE

SMILES | IC50 [nM]
O=C(N[C@H]1CC[C@@H](COc2nc(Nc3ccc(N4CCOCC4)cc3)ncc2Cl)C1)C(F)F [Example 102, N-((1S,3R)-3-(((5-chloro-2-((4-morpholino-phenyl)amino)pyrimidin-4-yl)oxy)methyl)cyclopentyl)-2,2-difluoro-acetamide] | < 50
FC(F)CN[C@H]1CC[C@H](COc2ccnc(Nc3ccc(N4CCOCC4)cc3)n2)CC1 [Example 103, 4-(((1R,4R)-4-((2,2-difluoro-ethyl)amino)cyclohexyl)methoxy)-N-(4-morpholino-phenyl) pyrimidin-2-amine] | < 50
FC(F)(F)CN[C@H]1CC[C@H](COc2ccnc(Nc3ccc(N4CCOCC4)cc3)n2)CC1 [Example 104, N-(4-morpholino-phenyl)-4-(((1R,4R)-4-((2,2,2-trifluoroethyl)amino)cyclohexyl)methoxy) pyrimidin-2-amine] | 50 to 200
COc1cnc(Nc2ccc(N3CCOCC3)cc2)nc1OC[C@H]1CC[C@H](NCC(F)(F)F)CC1 [Example 105, 5-methoxy-N-(4-morpholino-phenyl)-4-(((1R,4R)-4-((2,2,2-trifluoroethyl)amino)cyclohexyl)methoxy) pyrimidin-2-amine] | 50 to 200
FC(F)CN[C@H]1CC[C@H](COc2nc(Nc3cccc(N4CCOCC4)c3)ncc2Cl)CC1 [Example 107, 5-chloro-4-(((1R,4R)-4-((2,2-difluoro-ethyl)amino)cyclohexyl)methoxy)-N-(3-morpholino-phenyl) pyrimidin-2-amine] | < 50
FC(F)(F)CN[C@H]1CC[C@H](COc2nc(Nc3ccc(N4CCOCC4)cc3)ncc2Cl)CC1 [Example 108, 5-chloro-N-(4-morpholino-phenyl)-4-(((1R,4R)-4-((2,2,2-trifluoroethyl)amino)cyclohexyl)methoxy) pyrimidin-2-amine] | < 50
O=C(C(F)F)N1CCC(COc2nc(Nc3ccc(N4CCOCC4)cc3)ncc2Cl)CC1 [Example 109, 1-(4-(((5-chloro-2-((4-morpholino-phenyl)amino)pyrimidin-4-yl)oxy)methyl)piperidin-1-yl)-2,2-difluoro-ethan-1-one] | < 50
O=C(C(F)F)N1CCC(COc2nc(Nc3cccc(N4CCOCC4)c3)ncc2Cl)CC1 [Example 110, 1-(4-(((5-chloro-2-((3-morpholino-phenyl)amino)pyrimidin-4-yl)oxy)methyl)piperidin-1-yl)-2,2-difluoro-ethan-1-one] | < 50
Cc1nn(C(C)(C)C#N)cc1Nc1ncc(Cl)c(OCC2CCN(C(=O)C(F)F)CC2)n1 [Example 111, 2-(4-((5-chloro-4-((1-(2,2-difluoro-acetyl)piperidin-4-yl)methoxy)pyrimidin-2-yl)amino)-3-methyl-1H-pyrazol-1-yl)-2-methyl-propanenitrile] | < 50
O=C(N1CCC(COc2nc(Nc3ccc(N4CCOCC4)cc3)ncc2Cl)CC1)C(F)(F)F [Example 112, 1-(4-(((5-chloro-2-((4-morpholino-phenyl)amino)pyrimidin-4-yl)oxy)methyl)piperidin-1-yl)-2,2,2-trifluoro-ethan-1-one] | 50 to 200
FC(F)CN1CCC(COc2nc(Nc3ccc(N4CCOCC4)cc3)ncc2Cl)CC1 [Example 113, 5-chloro-4-((1-(2,2-difluoroethyl)piperidin-4-yl)methoxy)-N-(4-morpholino-phenyl) pyrimidin-2-amine] | < 50
FC(F)(F)CN1CCC(COc2nc(Nc3ccc(N4CCOCC4)cc3)ncc2Cl)CC1 [Example 114, 5-chloro-N-(4-morpholino-phenyl)-4-((1-(2,2,2-trifluoroethyl)piperidin-4-yl)methoxy) pyrimidin-2-amine] | > 400
CC(N[C@H]1CC[C@H](COc2nc(Nc3ccc(N4CCOCC4)cc3)ncc2F)CC1)C(F)(F)F (stereo partly drawn) [Example 116, 5-fluoro-N-(4-morpholino-phenyl)-4-(((1R,4R)-4-((1,1,1-trifluoro-propan-2-yl)amino)cyclohexyl)methoxy) pyrimidin-2-amine] | 200 to 400
OC1CCC(COc2ccnc(Nc3ccc(N4CCOCC4)cc3)n2)CC1 (stereo not shown) [Example 117, 4-(((2-((4-morpholinophenyl)amino)pyrimidin-4-yl)oxy)methyl)cyclohexanol] | 200 to 400
C[C@@H]1CN(c2ccc(Nc3nccc(OCC4CCC(O)CC4)n3)cc2)C[C@H](C)O1 (stereo partly drawn) [Example 118, 4-(((2-((4-((2S,6R)-2,6-dimethylmorpholino)phenyl)amino)pyrimidin-4-yl)oxy)methyl)cyclohexan-1-ol] | 50 to 200
Cc1nn(C(C)(C)C#N)cc1Nc1nccc(OCC2CCC(O)CC2)n1 (stereo not shown) [Example 119, 2-(4-((4-((4-hydroxycyclohexyl)methoxy)pyrimidin-2-yl)amino)-3-methyl-1H-pyrazol-1-yl)-2-methylpropanenitrile] | 200 to 400
C[C@@H]1CN(c2ccc(Nc3ncc(Cl)c(OCC4CCC(O)CC4)n3)cc2)C[C@H](C)O1 (stereo partly drawn) [Example 120, 4-(((5-chloro-2-((4-((2S,6R)-2,6-dimethylmorpholino)phenyl)amino)pyrimidin-4-yl)oxy)methyl)cyclohexan-1-ol] | < 50

SMILES | IC50 [nM]
Cc1nn(C(C)(C)C#N)cc1Nc1ncc(Cl)c(OCC2CCC(O)CC2)n1 (stereo not shown) [Example 121, 2-(4-((5-chloro-4-((4-hydroxycyclohexyl)methoxy)pyrimidin-2-yl)amino)-3-methyl-1H-pyrazol-1-yl)-2-methylpropanenitrile] | < 50
Cc1nn(C2CC(C#N)C2)cc1Nc1ncc(Cl)c(OCC2CCC(O)CC2)n1 (stereo not shown) [Example 122, 3-(4-((5-chloro-4-((4-hydroxycyclohexyl)methoxy)pyrimidin-2-yl)amino)-3-methyl-1H-pyrazol-1-yl)cyclobutane-1-carbonitrile] | < 50
OC1CCC(COc2nc(Nc3ccc(N4CCOCC4)cc3)ncc2F)CC1 (stereo not shown) [Example 123, 4-(((5-fluoro-2-((4-morpholinophenyl)amino)pyrimidin-4-yl)oxy)methyl)cyclohexan-1-ol] | 50 to 200
C[C@@H]1CN(c2ccc(Nc3ncc(F)c(OCC4CCC(O)CC4)n3)cc2)C[C@H](C)O1 (stereo partly drawn) [Example 124, 4-(((2-((4-((2S,6R)-2,6-dimethylmorpholino)phenyl)amino)-5-fluoropyrimidin-4-yl)oxy)methyl)cyclohexan-1-ol] | < 50
Cc1nn(C(C)(C)C#N)cc1Nc1ncc(F)c(OC[C@H]2CC[C@H](O)CC2)n1 [Example 125, 2-(4-((5-fluoro-4-(((1R,4R)-4-hydroxycyclohexyl)methoxy)pyrimidin-2-yl)amino)-3-methyl-1H-pyrazol-1-yl)-2-methylpropanenitrile] | < 50
Cc1nn(C(C)(C)C#N)cc1Nc1ncc(F)c(OC[C@H]2CC[C@@H](O)CC2)n1 [Example 126, 2-(4-((5-fluoro-4-(((1S,4S)-4-hydroxycyclohexyl)methoxy)pyrimidin-2-yl)amino)-3-methyl-1H-pyrazol-1-yl)-2-methylpropanenitrile] | < 50
Cc1nn(C(C)(C)C#N)cc1Nc1ncc(F)c(OCC2CCC(O)C2)n1 (stereo not shown) [Example 127, 2-(4-((5-fluoro-4-((3-hydroxycyclopentyl)methoxy)pyrimidin-2-yl)amino)-3-methyl-1H-pyrazol-1-yl)-2-methylpropanenitrile] | < 50
Cc1cnc(Nc2ccc(N3C[C@@H](C)O[C@@H](C)C3)cc2)nc1OCC1CCC(O)CC1 (stereo partly drawn) [Example 128, 4-(((2-((4-((2S,6R)-2,6-dimethylmorpholino)phenyl)amino)-5-methylpyrimidin-4-yl)oxy)methyl)cyclohexan-1-ol] | < 50
C[C@@H]1CN(c2ccc(Nc3ncc(C4CC4)c(OCC4CCC(O)CC4)n3)cc2)C[C@H](C)O1 (stereo partly drawn) [Example 129, 4-(((5-cyclopropyl-2-((4-((2S,6R)-2,6-dimethylmorpholino)phenyl)amino)pyrimidin-4-yl)oxy)methyl)cyclohexan-1-ol] | < 50
Cc1nn(C(C)(C)C#N)cc1Nc1nccc(OCC2CCC(O)C2)n1 (stereo not shown) [Example 130, 2-(4-((4-((3-hydroxycyclopentyl)methoxy)pyrimidin-2-yl)amino)-3-methyl-1H-pyrazol-1-yl)-2-methylpropanenitrile] | 50 to 200
CCN1CCN(Cc2ccc(Nc3ncc(Cl)c(OCC4CCC(O)CC4)n3)nc2)CC1 (stereo not shown) [Example 131, 4-(((5-chloro-2-((5-((4-ethylpiperazin-1-yl)methyl)pyridin-2-yl)amino)pyrimidin-4-yl)oxy)methyl)cyclohexan-1-ol] | > 400
CCN1CCN(c2ccc(Nc3ncc(Cl)c(OCC4CCC(O)CC4)n3)nc2)CC1 (stereo not shown) [Example 132, 4-(((5-chloro-2-((5-(4-ethylpiperazin-1-yl)pyridin-2-yl)amino)pyrimidin-4-yl)oxy)methyl)cyclohexan-1-ol] | 50 to 200
CCN1CCN(c2ccc(Nc3nccc(OCC4CCC(O)CC4)n3)nc2)CC1 (stereo not shown) [Example 133, 4-(((2-((5-(4-ethylpiperazin-1-yl)pyridin-2-yl)amino)pyrimidin-4-yl)oxy)methyl)cyclohexan-1-ol] | > 400
OC1CC2(C1)CC(COc1nc(Nc3ccc(N4CCOCC4)cc3)ncc1F)C2 (stereo not shown) [Example 134, 6-(((5-fluoro-2-((4-morpholinophenyl)amino)pyrimidin-4-yl)oxy)methyl)spiro[3.3]heptan-2-ol] | < 50
Cc1nn(C(C)(C)C#N)cc1Nc1ncc(Cl)c(OCC2CCC(C)(O)CC2)n1 (stereo not shown) [Example 135, 2-(4-((5-chloro-4-((4-hydroxy-4-methylcyclohexyl)methoxy)pyrimidin-2-yl)amino)-3-methyl-1H-pyrazol-1-yl)-2-methylpropanenitrile] | < 50
CC(C)(O)[C@H]1CC[C@H](COc2ccnc(Nc3ccc(N4CCOCC4)cc3)n2)CC1 [Example 136, 2-((1R,4R)-4-(((2-((4-morpholinophenyl)amino)pyrimidin-4-yl)oxy)methyl)cyclohexyl)propan-2-ol] | 50 to 200
CC(C)(O)[C@H]1CC[C@H](COc2nc(Nc3ccc(N4CCOCC4)cc3)ncc2Cl)CC1 [Example 137, 2-((1R,4R)-4-(((5-chloro-2-((4-morpholinophenyl)amino)pyrimidin-4-yl)oxy)methyl)cyclohexyl)propan-2-ol] | < 50
